Consider 34 compounds from US11964960B2 (Cornell University, priority 2018, dated 2024).

Where a name gives a salt, the structure may show the parent alone.

For the assay, the target named is T1, S1P2 (Homo sapiens, UniProt O95136).
T1 construct: Flag; expressed in transfected cells; host or cells: Chinese hamster ovary (CHO) cells, doxycycline-inducible (CHO-S1P2-FL / CHO-S1PR2 FL)
As to the kind of experiment: GLISA RhoA activation - antagonist assay. It is filed as cell-based. To be noted: CHO-S1P2-FL cells; for IC50: 1 hour compound incubation, then for 5 min; for inhibition at 1 µM: 1 μM compound. As for the experimental part:
GLISA RhoA Activation—Antagonist Assay
GLISA assays were performed using RhoA (BK124) activation kit purchased from Cytoskeleton Inc., Denver, CO Doxycycline-inducible Flag-tag S1P2 expressing Chinese hamster ovary (CHO) cells (CHO-S1P2-FL) were seeded in a 6-well plate, 1.5×10^5 cells per well. Cells were stimulated with […] of Doxycycline to induce S1P2 expression in serum free IMDM media with 0.1% BSA/PBS. Following day, cells were stimulated with the compounds described herein (1 nM-10 μM) or 1 μM JTE-013 for 1 hour at 37° C. Following compound incubation, cells were washed with PBS×3 and induced with 100 nM […] for 5 min. […] Protein concentration was examined using GLISA—Precision Red Advanced Protein assay reagent as described in assay manual. Lysates were immobilized on GTP-bound capture plate and GLISA assay was performed based on manufacture recommendations as reported previously.

T1 sequence (O95136 whole entry, species assumed): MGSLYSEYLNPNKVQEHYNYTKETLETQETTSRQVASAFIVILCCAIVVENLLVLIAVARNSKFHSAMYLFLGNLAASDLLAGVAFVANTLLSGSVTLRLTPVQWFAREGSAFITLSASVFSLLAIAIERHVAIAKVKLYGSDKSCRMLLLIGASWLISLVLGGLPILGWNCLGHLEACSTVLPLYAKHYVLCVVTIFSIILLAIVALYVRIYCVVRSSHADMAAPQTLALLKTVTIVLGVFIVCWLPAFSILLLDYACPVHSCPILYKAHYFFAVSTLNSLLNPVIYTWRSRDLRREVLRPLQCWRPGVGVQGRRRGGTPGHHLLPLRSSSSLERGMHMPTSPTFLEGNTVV

The term IC50 denotes the concentration that inhibits the measured activity by half. Read a high IC50 as weaker potency. As to `Cc1c(C(=O)Cn2cc(Br)cnc2=O)cnn1Cc1ccccc1` [Example 56, 1-(2-(1-Benzyl-5-methyl-1H-pyrazol-4-yl)-2-oxoethyl)-5-bromopyrimidin-2(1H)-one], the IC50 was 0.2 µM.

Broadly, the inhibition is the drop in the measured response relative to a control, in per cent. A higher inhibition goes with strong suppression. Take `Cc1ccccc1Cn1c(C)cc(C(=O)C(C)n2cc(Br)ccc2=O)c1C` (stereo not shown) [Example 64, 5-Bromo-1-(1-(2,5-dimethyl-1-(2-methylbenzyl)-1H-pyrrol-3-yl)-1-oxopropan-2-yl)pyridin-2(1H)-one]: the inhibition at 1 µM is < 10%.

Consider `Cc1cc(C(=O)Cn2cc(C(=O)O)ccc2=O)c(C)n1Cc1ccccc1` [Example 46, 1-(2-(1-Benzyl-2,5-dimethyl-1H-pyrrol-3-yl)-2-oxoethyl)-6-oxo-1,6-dihydropyridine-3-carboxylic Acid], for which the IC50 was > 10 µM.

Regarding `Cc1cc(C(=O)C(C)n2cc(Br)ccc2=O)c(C)n1Cc1cccc(C#N)c1` (stereo not shown) [Compound 15, 3-((3-(2-(5-bromo-2-oxopyridin-1(2H)-yl)propanoyl)-2,5-dimethyl-1H-pyrrol-1-yl)methyl)benzonitrile], the inhibition at 1 µM is 70%.

Take `Cc1ccc(Cn2c(C)cc(C(=O)C(C)n3cc(Br)ccc3=O)c2C)cc1` (stereo not shown) [Example 65, 5-Bromo-1-(1-(2,5-dimethyl-1-(4-methylbenzyl)-1H-pyrrol-3-yl)-1-oxopropan-2-yl)pyridin-2(1H)-one]: the inhibition at 1 µM came out at 11%.

With `Cc1cc(C(=O)C(Cc2ccc(-c3ccccc3)cc2)n2cc(C#N)ccc2=O)c(C)[nH]1` (stereo not shown) [Example 48, 1-(3-((1,1′-Biphenyl)-4-yl)-1-(2,5-dimethyl-1H-pyrrol-3-yl)-1-oxopropan-2-yl)-6-oxo-1,6-dihydropyridine-3-carbonitrile], the IC50 was > 10 µM.

The compound `C#Cc1ccc(=O)n(CC(=O)c2cc(C)n(Cc3ccc(F)cc3)n2)c1` [Compound 31, 5-ethynyl-1-(2-(1-(4-fluorobenzyl)-5-methyl-1H-pyrazol-3-yl)-2-oxoethyl)pyridin-2(1H)-one] yielded an inhibition at 1 µM of 69% and an IC50 of 0.253 µM.

`Cc1cc(C(=O)C(C)n2cc(Br)ccc2=O)c(C)n1Cc1ccc(S(C)(=O)=O)cc1` (stereo not shown) [Compound 13, 5-bromo-1-(1-(2,5-dimethyl-1-(4-(methylsulfonyl)benzyl)-1H-pyrrol-3-yl)-1-oxopropan-2-yl)pyridin-2(1H)-one]: 1 µM produced 29% inhibition.

Take `Cc1cc(C(=O)C(C)n2cc(Br)ccc2=O)c(C)n1Cc1ccncc1` (stereo not shown) [Compound 25, 5-bromo-1-(1-(2,5-dimethyl-1-(pyridin-4-ylmethyl)-1H-pyrrol-3-yl)-1-oxopropan-2-yl)pyridin-2(1H)-one]: at 1 µM the inhibition was 39%.

As to `CC(=O)Nc1ccc(=O)n(CC(=O)c2cc(C)n(Cc3ccccc3)c2C)c1` [Example 54, N-(1-(2-(1-Benzyl-2,5-dimethyl-1H-pyrrol-3-0)-2-oxoethyl)-6-oxo-1,6-dihydropyridin-3-yl)acetamide], the IC50 is > 10 µM.

Consider `Cc1cc(C(=O)C(C)n2cc(Br)ccc2=O)c(C)n1Cc1cccc(Cl)c1` (stereo not shown) [Compound 22, 5-bromo-1-(1-(1-(3-chlorobenzyl)-2,5-dimethyl-1H-pyrrol-3-yl)-1-oxopropan-2-yl)pyridin-2(1H)-one], for which the inhibition at 1 µM came to 73% and half-maximal inhibition (IC50) required 0.793 µM.

In turn, `Cc1cc(C(=O)C(C)n2cc(Br)ccc2=O)c(C)n1Cc1ccc(F)c(F)c1` (stereo not shown) [Compound 20, 5-bromo-1-(1-(1-(3,4-difluorobenzyl)-2,5-dimethyl-1H-pyrrol-3-yl)-1-oxopropan-2-yl)pyridn-2(1H)-one] returned an inhibition at 1 µM of 46%.

`Cc1nc(Cn2c(C)cc(C(=O)C(C)n3cc(Br)ccc3=O)c2C)no1` (stereo not shown) [Compound 5, 5-bromo-1-(1-(2,5-dimethyl-1-((5-methyl-1,2,4-oxadiazol-3-yl)methyl)-1H-pyrrol-3-yl)-1-oxopropan-2-yl)pyridin-2(1H)-one]: 1 µM produced 48% inhibition.

With `Cc1cc(C(=O)C(C)n2cc(C#N)ccc2=O)c(C)n1Cc1ccccc1` (stereo not shown) [Example 52, 1-(1-(1-Benzyl-2,5-dimethyl-1H-pyrrol-3-yl)-1-oxopropan-2-yl)-6-oxo-1,6-dihydropyridine-3-carbonitrile], the IC50 is > 10 µM.

`Cc1cc(C(=O)Cn2cc(C#N)ccc2=O)c(C)n1CCc1ccccc1` [Example 91, 1-(2-(2,5-Dimethyl-1-phenethyl-1H-pyrrol-3-yl)-2-oxoethyl)-6-oxo-1,6-dihydropyridine-3-carbonitrile] gave an inhibition at 1 µM of 12%.

`Cc1cc(C(=O)Cn2cc(I)ccc2=O)c(C)n1Cc1ccccc1` [Compound 2, 1-(2-(1-benzyl-2,5-dimethyl-1H-pyrrol-3-yl)-2-oxoethyl)-5-iodopyridin-2(1H)-one] showed an inhibition at 1 µM of 57% and an IC50 of 1.47 µM.

As for `O=c1ccc(Br)cn1Cc1nccc2c1cnn2Cc1ccccc1` [Compound 130, 1-((1-Benzyl-1H-pyrazolo[4,3-c]pyridin-4-y)methyl)-5-bromopyridin-2(1H)-one hydrochloride], the IC50 turned out to be 0.14 µM.

`Cc1nnc(Cn2c(C)cc(C(=O)C(C)n3cc(Br)ccc3=O)c2C)o1` (stereo not shown) [Example 57, 5-Bromo-1-(1-(2,5-dimethyl-1-((5-methyl-1,3,4-oxadiazol-2-yl)methyl)-1H-pyrrol-3-yl)-1-oxopropan-2-yl)pyridin-2(1H)-one] returned an inhibition at 1 µM of 10%.

`C#Cc1ccc(=O)n(Cc2nccc3c2cnn3Cc2ccccc2)c1` [Compound 131, 1-((1-benzyl-1H-pyrazolo[4,3-c]pyridin-4-yl)methyl)-5-ethynylpyridin-2(1H)one hydrochloride] gave a half-inhibitory concentration (IC50) of 0.058 µM.

In turn, `Cc1cc(C(=O)C(C)n2cc(Br)ccc2=O)c(C)n1Cc1ccccc1F` (stereo not shown) [Compound 19, 5-bromo-1-(1-(1-(2-fluorobenzyl)-2,5-dimethyl-1H-pyrrol-3-yl)-1-oxopropan-2-yl)pyridin-2(1H)-one] came in with an inhibition at 1 µM of 44%.

Turning to `C=C(c1ccc(=O)n(CC(=O)c2cnn(Cc3ccccc3)c2C)c1)C(F)(F)F` [Example 84, 1-(2-(1-Benzyl-5-methyl-1H-pyrazol-4-yl)-2-oxoethyl)-5-(3,3,3-trifluoroprop-1-en-2-yl)pyridin-2(1H)-one], the IC50 was found to be 0.043 µM.

Regarding `Cc1cccc(Cn2c(C)cc(C(=O)C(C)n3cc(Br)ccc3=O)c2C)c1` (stereo not shown) [Example 63, 5-Bromo-1-(1-(2,5-dimethyl-1-(3-methylbenzyl)-1H-pyrrol-3-yl)-1-oxopropan-2-yl)pyridin-2(1H)-one], at 1 µM the inhibition was 17%.

On to `COC(=O)c1ccc(=O)n(CC(=O)c2cc(C)n(Cc3ccccc3)c2C)c1` [Example 90], for which the inhibition at 1 µM was < 10%.

On to `C=C(F)c1ccc(=O)n(CC(=O)c2cnn(Cc3ccccc3)c2C)c1` [Example 83], for which half-maximal inhibition (IC50) required 0.082 µM.

`Cc1cc(C(=O)C(C)n2cc(Br)ccc2=O)c(C)n1CC1CCCOC1` (stereo not shown) [Compound 11, 5-bromo-1-(1-(2,5-dimethyl-1-((tetrahydro-2H-pyran-3-yl)methyl)-1H-pyrrol-3-yl)-1-oxopropan-2-yl)pyridin-2(1H)-one]: the inhibition at 1 µM was 30%.

As to `Cc1cc(C(=O)Cn2cc(Br)ccc2=O)nn1Cc1ccc(F)cc1` [Example 68, 5-Bromo-1-(2-(1-(4-fluorobenzyl)-5-methyl-1H-pyrazol-3-yl)-2-oxoethyl)pyridin-2(1H)-one], testing at 1 µM gave an inhibition of 18%.

On to `Cc1cc(C(=O)C(C)n2cc(Br)ccc2=O)c(C)n1Cc1ccn(C)n1` (stereo not shown) [Compound 12, 5-bromo-1-(1-(2,5-dimethyl-1-((1-methyl-1H-pyrazol-3-yl)methyl)-1H-pyrrol-3-yl)-1-oxopropan-2-yl)pyridin-2(1H)-one], for which the inhibition at 1 µM was found to be 41%.

`COc1ccc(Cn2c(C)cc(C(=O)C(C)n3cc(Br)ccc3=O)c2C)cc1` (stereo not shown) [Example 61, 5-Bromo-1-(1-(1-(4-methoxybenzyl)-2,5-dimethyl-1H-pyrrol-3-yl)-1-oxopropan-2-yl)pyridin-2(1H)-one] came in with an inhibition at 1 µM of 18%.

The compound `Cc1cc(C(=O)C(C)n2cc(Br)ccc2=O)c(C)n1Cc1ncccn1` (stereo not shown) [Compound 7, 5-bromo-1-(1-(2,5-dimethyl-1-(pyrimidin-2-ylmethyl)-1H-pyrrol-3-yl)-1-oxopropan-2-yl)pyridin-2(1H)-one] returned an inhibition at 1 µM of 58%.

`C#Cc1ccc(=O)n(C(C)C(=O)c2cnn(Cc3ccccc3)c2C)n1` (stereo not shown) [Example 73, 2-(1-(1-Benzyl-5-methyl-1H-pyrazol-4-yl)-1-oxopropan-2-yl)-6-ethynylpyridazin-3(2H)-one] displayed an IC50 of 0.059 µM.

In turn, `C=Cc1ccc(=O)n(CC(=O)c2nnn(Cc3ccccc3)c2C)c1` [Example 89, 1-(2-(1-Benzyl-5-methyl-1H-1,2,3-triazol-4-yl)-2-oxoethyl)-5-vinylpyridin-2(1H)-one] returned an IC50 of 0.065 µM.

The compound `Cc1c(C(=O)Cn2c(F)c(Br)ccc2=O)cnn1Cc1ccccc1` [Example 71, 1-(2-(1-Benzyl-5-methyl-1H-pyrazol-4-yl)-2-oxoethyl)-5-bromo-6-fluoropyridin-2(1H)-one] gave an IC50 of 0.022 µM.

Take `C=Cc1ccc(=O)n(CC(=O)c2cnn(Cc3ccccc3)c2CC)c1` [Example 85, 1-(2-(1-Benzyl-5-ethyl-1H-pyrazol-4-yl)-2-oxoethyl)-5-vinylpyridin-2(1H)-one]: it took 0.108 µM to reach half-maximal inhibition (IC50).

Compound `C=C(C)c1ccc(=O)n(CC(=O)c2cnn(Cc3ccccc3)c2C)c1` [Example 81, 1-(2-(1-Benzyl-5-methyl-1H-pyrazol-4-yl)-2-oxoethyl)-5-(prop-1-en-2-yl)pyridin-2(1H)-one] displayed an IC50 of 0.181 µM.
